Data taken from patent US6596713B1, “Steroid esters and amides, process for their production and their pharmaceutical use” (priority 1994, dated 2003).

Type: physicochemical
Settings: temperature in which 50 mg of substance is dissolved in 1 ml of a 1:4 benzyl benzoate/castor oil mixture; lower temperature = better solubility

Compound	Solubility
6′-(4-Fluorophenyl)-17α-(3-hydroxypropyl)-9,11α-dihydro-17β-hydroxy-4′H-naphtho[3′,2′,1′:10,9,11]estr-4-en-3-one [Ref. 6, reference compound]	23 °C
6′-(4-Fluorophonyl)-17α-(3-hydroxyprop-1-inyl)-9,11α-dihydro-17β-hydroxy-4′H-naphtho[3′,2′,1′:10,9,11]estr-4-on-3-one [Ref. 5, reference compound]	23 °C
CC(C)C(=O)OC/C=C\[C@]1(O)CC[C@H]2[C@@H]3CCC4=CC(=O)CC[C@@]45Cc4cc(-c6ccc(C#N)cc6)ccc4[C@@H](C[C@@]21C)[C@@H]35 [Example 6, (Z)-6′-(4-Cyanophenyl)-9,11α-dihydro-17β-hydroxy-17α-[3-(1-oxo-2-methylpropoxy)-1-propenyl]-4′H-naphtho[3′,2′,1′:10,9,11]estr-4-en-3-one]	100 °C
CC(C)(C)CC(=O)OC/C=C\[C@]1(O)CC[C@H]2[C@@H]3CCC4=CC(=O)CC[C@@]45Cc4cc(-c6ccc(C#N)cc6)ccc4[C@@H](C[C@@]21C)[C@@H]35 [Example 7, (Z)-6′-(4-Cyanophenyl)-9,11α-dihydro-17α-[3-(3,3-dimethyl-1-oxobutoxy)-1-propenyl]-17β-hydroxy-4′H-naphtho[3′,2′,1′:10,9,11]estr-4-en-3-one]	23 °C
COC(=O)CCC(=O)OCC=CC1(O)CCC2C3CCC4=CC(=O)CCC45Cc4cc(-c6ccc(C#N)cc6)ccc4C(CC21C)C35 (stereo not drawn) [Example 9, (Z)-6′-(4-Cyanophenyl)-9,11α-dihydro-17α-[3-(1,4-dioxo-4-methoxybutoxy)-1-propenyl]-17β-hydroxy-4′H-naphtho[3′,2′,1′:10,9,11]estr-4-en-3-one]	50 °C
CCOCCC(=O)OCC=CC1(O)CCC2C3CCC4=CC(=O)CCC45Cc4cc(-c6ccc(C#N)cc6)ccc4C(CC21C)C35 (stereo not drawn) [Example 11, (Z)-6′-(4-Cyanophenyl)-9,11α-dihydro-17α-[3-(3-ethoxy-1-oxopropoxy)-1-propenyl]-17βhydroxy-4′H-naphtho[3′,2′,1′:10,9,11]estr-4-en-3-one]	100 °C
CC12CC3c4ccc(-c5ccc(C#N)cc5)cc4CC45CCC(=O)C=C4CCC(C35)C1CCC2(O)C=CCOC(=O)CN (stereo not drawn) [Example 12, (Z)-17α-[3-[(Aminoacetyl)oxy]-1-propenyl]-6′-(4-cyanophenyl)-9,11α-dihydro-17β-hydroxy-4′H-naphtho[3′,2′,1′:10,9,11]estr-4-en-3-one]	100 °C
CC(N)C(=O)OCC=CC1(O)CCC2C3CCC4=CC(=O)CCC45Cc4cc(-c6ccc(C#N)cc6)ccc4C(CC21C)C35 (stereo not drawn) [Example 14, [S-(Z)]-17α-[3-(2-Amino-1-oxopropoxy)-1-propenyl]-6′-(4-cyanophenyl)-9,11α-dihydro-17β-hydroxy-4′H-naphtho [3′,2′,1′:10,9,11]estr-4-en-3-one]	23 °C
CCCCCCC(=O)OCC=CC1(O)CCC2C3CCC4=CC(=O)CCC45Cc4cc(-c6cccnc6)ccc4C(CC21C)C35 (stereo not drawn) [Example 20, (Z)-9,11α-Dihydro-17βhydroxy-17α-[3-[(1-oxoheptyl)oxy]-1-propenyl]-6′-(3-pyridinyl)-4′H-naphtho[3′,2′,1′:10,9,11]estr-4-en-3-one]	50 °C
CC(NC(=O)OC(C)(C)C)C(=O)OCCCC1(O)CCC2C3CCC4=CC(=O)CCC4=C3C(c3ccc(N(C)C)cc3)CC21C [Example 27, (S)-11β-[4-(Dimethylamino)phenyl]-17β-[3-[2-[[(1,1-dimethylethoxy)-carbonyl]amino]-1-oxopropoxy]propyl]-17α-hydroxy-13α-estra-4,9-dien-3-one]	23 °C
CC(C)[C@H](NC(=O)OC(C)(C)C)C(=O)OCCC[C@@]1(O)CC[C@H]2[C@@H]3CCC4=CC(=O)CCC4=C3[C@@H](c3ccc(N(C)C)cc3)C[C@]21C [Example 29, (S)-11β-[4-(Dimethylamino)phenyl]-17α-[3-[2-[[(1,1-dimethylethoxy)-carbonyl]amino]-3-methyl-1-oxobutoxy]-1-propyl]-17α-hydroxy-13α-estra-4,9-dien-3-one]	23 °C
C[C@H](N)C(=O)OC/C=C\[C@]1(O)CC[C@H]2[C@@H]3CCC4=CC(=O)CC[C@@H]4[C@H]3[C@@H](c3ccc(N(C)C)cc3)C[C@@]21C [Example 30, [S-(Z)]-17α-[3-(2-Amino-1-oxopropoxy)-1-propenyl]-11β-[4-(dimethylamino)phenyl]-17βhydroxyestr-4-en-3-one]	50 °C
CC(NC(=O)OC(C)(C)C)C(=O)OCC=CC1(O)CCC2C3CCC4=CC(=O)CCC4C3C(c3ccc(N(C)C)cc3)CC21C (stereo not drawn) [Example 31, [S-(Z)]-11β-[4-(Dimethylamino)phenyl]-17α-[3-[2-[[(1,1-dimethylethoxy)carbonyl]amino]-1-oxopropoxy]-1-propenyl]-17β-hydroxyestr-4-en-3-one]	23 °C
CC(C)C(NC(=O)OC(C)(C)C)C(=O)OCC=CC1(O)CCC2C3CCC4=CC(=O)CCC4C3C(c3ccc(N(C)C)cc3)CC21C (stereo not drawn) [Example 32, [S-(Z)]-11β-[4-(Dimethylamino)phenyl]-17α-[3-[2-[(1,1-dimethylethoxy)carbonyl]amino]-3-methyl-1-oxobutoxyl]-1-propenyl]-17β-hydroxyestr-4-en-3-one]	23 °C
CC(NC(=O)OC(C)(C)C)C(=O)OCC=CC1(O)CCC2C3CCC4=CC(=O)CCC4C3C(c3ccc(-c4ccc(C#N)cc4)cc3)CC21C (stereo not drawn) [Example 33, [S-(z)]-4′-[17α-[3-[2-[[(1,1-Dimethylethoxy)carbonyl]amino]-1-oxopropoxy]-1-propenyl]-17β-hydroxy-3-oxoestr-4-en-11β-yl][1,1′-biphenyl]-4-carbonitrile]	50 °C
CC(C)C(NC(=O)OC(C)(C)C)C(=O)OCC=CC1(O)CCC2C3CCC4=CC(=O)CCC4C3C(c3ccc(-c4ccc(C#N)cc4)cc3)CC21C (stereo not drawn) [Example 34, [S-(Z)]-4′-[17α-[3-[2-[[(1,1-Dimethylethoxy)carbonyl]amino]-3-methyl-1-oxobutoxy]-1-propenyl]-17β-hydroxy-3-oxoestr-4-en-11β-yl][1,1′-biphenyl]-4-carbonitrile]	50 °C
CN(C)c1ccc(C2CC3(C)C(CCC3(O)CCCOC(=O)CNC(=O)OC(C)(C)C)C3CCC4=CC(=O)CCC4=C23)cc1 [Example 36, (S)-11β-[4-(Dimethylamino)phenyl]-17β-[3-[[[(1,1-dimethylethoxy)carbonyl]amino]acetyloxy]propyl]-17α-hydroxy-13α-estra-4,9-dien-3-one]	23 °C
CN(C)c1ccc(C2CC3(C)C(CCC3(O)C=CCOC(=O)CNC(=O)OC(C)(C)C)C3CCC4=CC(=O)CCC4C23)cc1 (stereo not drawn) [Example 37, [S-(Z)]-11β-[4-(Dimethylamino)phenyl]-17α-[3-[[[(1,1-dimethylethoxy)carbonyl]amino]acetyloxy]-1-propenyl]-17β-hydroxyestr-4-en-3-one]	23 °C
CC(C)(C)OC(=O)NCC(=O)OCC=CC1(O)CCC2C3CCC4=CC(=O)CCC4C3C(c3ccc(-c4ccc(C#N)cc4)cc3)CC21C (stereo not drawn) [Example 38, [S-(Z)]-4′-[17α-[3-[[[(1,1-Dimethylethoxy)carbonyl]-amino]acetyloxy]-1-propenyl]-17β-hydroxy-3-oxoestr-4-en-11β-yl][1,1′-biphenyl]-4-carbonitrile]	23 °C
CC(C)C(N)C(=O)OCC=CC1(O)CCC2C3CCC4=CC(=O)CCC4C3C(c3ccc(-c4ccc(C#N)cc4)cc3)CC21C (stereo not drawn) [Example 39, [S-(Z)]-4′-[17α-[3-[2-Amino-3-methyl-1-oxobutoxy]-1-propenyl]-17β-hydroxy-3-oxoestr-4-en-11β-yl][1,1′-biphenyl]-4-carbonitrile]	50 °C
CC12CC3c4ccc(-c5ccc(C#N)cc5)cc4CC45CCC(=O)C=C4CCC(C35)C1CCC2(O)C=CCO (stereo not drawn) [Ref. 1, (Z)-6′-(4-cyanophenyl)-9,11α-dihydro-17β-hydroxy-17α-(3-hydroxy-1-propenyl)-4′H-naphtho[3′,2′,1′:10,9,11]estr-4-en-3-one, reference compound]	>>100 °C
C[C@]12C[C@@H]3c4ccc(-c5cccnc5)cc4C[C@]45CCC(=O)C=C4CC[C@H]([C@H]35)[C@@H]1CC[C@@]2(O)/C=C\CO [Ref. 2, (Z)-9,11α-dihydro-17β-hydroxy-17α-(3-hydroxy-1-propenyl)-6′-(3-pyridinyl)-4′H-naphtho[3′,2′,1′:10,9,11]estr-4-en-3-one, reference compound]	>>100 °C
(S)-6′-(4-Fluorophanyl)-9,11α-dihydro-17α-[3-[2-[[(1,1-dimethylethoxy) carbonyl]amino]-1-oxopropoxy]-1-propyl]-17β-hydroxy-4′H-naphtho[3′,2′,1′:10,9,11]estr-4-on-3-one [Example 43]	23 °C
(S)-6′-(4-Fluorophanyl)-9,11α-dihydro-17α-[3-[2-[[(1,1-dimethylethoxy)carbonyl]amino]-1-oxopropoxy]-1-propinyl]-17β-hydroxy-4′H-naphtho[3′,2′,1′;10,9,11]estr-4-en-3-one [Example 42]	23 °C
(S-(Z)]-6′-(4-Cyanophenyl)-9,11α-dihydro-17α-[3-[2-[[(1,1-dimethylethoxy)carbonyl]amino]-1-oxopropoxy]-1-propenyl]-17β-hydroxy-4′H-naphtho[3′,2′,1′:10,9,11]estr-4-en-3-one [Example 15]	23 °C
(Z)-6′-(4-Cyanophenyl)-9,11α-dihydro-17α-[3-(1,4-dioxo-4-ethoxybutoxy)-1-propenyl]-17β-hydroxy-4′H-naphtho[3′,2′,1′:10,9,11]estr-4-en-3-one [Example 10]	50 °C
(Z)-6′-(4-Cyanophenyl)-9,11α-dihydro-17α-[3-[[[[(1,1-dimethylethoxy)carbonyl]-amino]acetyl]oxy]-1-propenyl]-17βhydroxy-4′H-naphtho[3′,2′,1′:10,9,11]estr-4-en-3-one [Example 13]	50 °C
(Z)-6′-(4-Cyanophenyl)-9,11α-dihydro-17α-hydroxy-17α-[3-[(1-oxododecyl)oxy]-1-propenyl]-4′H-naphtho[3′,2′,1′:10,9,11]estr-4-en-3-one [Example 5]	23 °C
(Z)-6′-(4-Cyanophenyl)-9,11α-dihydro-17β-hydroxy-17α-[3-[(1-oxoheptyl)oxy]-1-propenyl]-4′H-naphtho[3′,2′,1′:10,9,11]estr-4-en-3-one [Example 3]	23 °C
